What was measured:
[1] = biological target: T1, human progesterone receptor(PR) (Homo sapiens, UniProt P06401); assay: Test of progesterone receptor antagonist activity (MMTV-luciferase transactivation in transfected HEK293T cells, with progesterone 1 nM); assay type: cell-based; conditions: 24 hours, progesterone 1 nM plus increasing amounts, Figure 2
T1 construct: expressed in transfected cells; host or cells: HEK293T
T1 sequence (P06401 1-933): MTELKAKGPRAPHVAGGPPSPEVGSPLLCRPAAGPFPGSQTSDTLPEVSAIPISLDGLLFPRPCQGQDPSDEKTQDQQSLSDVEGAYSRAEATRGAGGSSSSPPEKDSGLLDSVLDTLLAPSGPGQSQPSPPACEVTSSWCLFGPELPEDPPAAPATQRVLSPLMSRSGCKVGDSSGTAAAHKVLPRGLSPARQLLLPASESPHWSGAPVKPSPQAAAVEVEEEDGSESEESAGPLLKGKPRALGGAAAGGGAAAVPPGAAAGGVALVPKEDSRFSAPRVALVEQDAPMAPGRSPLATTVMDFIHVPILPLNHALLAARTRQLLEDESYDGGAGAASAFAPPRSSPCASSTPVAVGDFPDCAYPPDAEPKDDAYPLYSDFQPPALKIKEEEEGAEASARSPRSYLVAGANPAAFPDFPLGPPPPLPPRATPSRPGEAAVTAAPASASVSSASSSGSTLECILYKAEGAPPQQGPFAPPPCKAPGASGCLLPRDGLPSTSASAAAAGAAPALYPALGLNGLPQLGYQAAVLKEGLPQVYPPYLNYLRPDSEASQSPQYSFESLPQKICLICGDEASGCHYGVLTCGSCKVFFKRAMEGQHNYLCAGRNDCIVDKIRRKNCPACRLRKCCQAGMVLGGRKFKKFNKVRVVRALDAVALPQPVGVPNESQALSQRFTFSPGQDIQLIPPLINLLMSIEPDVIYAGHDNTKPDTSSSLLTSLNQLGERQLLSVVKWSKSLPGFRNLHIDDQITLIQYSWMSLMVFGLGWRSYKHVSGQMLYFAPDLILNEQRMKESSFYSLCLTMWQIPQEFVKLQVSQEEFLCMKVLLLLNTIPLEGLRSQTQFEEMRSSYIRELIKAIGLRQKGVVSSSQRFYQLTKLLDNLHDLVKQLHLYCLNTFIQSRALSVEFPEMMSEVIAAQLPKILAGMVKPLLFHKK
Description: The main experimental setting used is the following: HEK293T cells were transiently transfected, using calcium phosphate precipitation technology, with expression vectors pSG5hPR (which permits expression of human progesterone receptor(PR)), pFC31-luc (contains the luciferase gene under the control of the MMTV promoter, which is in turn activated by binding of a progestin to progesterone receptor) and pcbetagal (which permits expression of betagalactosidase), and cultured during 24 hours with increasing amounts of various compositions: • 1. […] Test of progesterone receptor […] activity: transfected cells were cultured with progesterone (1 nM) and increasing amounts of RU486 (a well-known progesterone receptor antagonist) or 3-methoxy-pregnenolone. With this setting, a compound with progesterone receptor antagonist activity competes with progesterone for the occupation of progesterone receptor and results in a progressive loss of transactivation activity when the amount of this compound is increased compared to progesterone.

[2] = system: NMDA PCP site; assay: CNS receptor binding assay, NMDA PCP site; conditions: MAP4343 10 µM; [^3H] TCP; rat cerebral cortex
Description: (§1) MAP4343 has been screened for in vitro affinity to 80 different CNS neurotransmitters receptors using various validated binding assays.
(§2) Table 4. In vitro affinity of MAP4343 (10 µM) for CNS neurotransmitter receptors associated with side effects and/or abuse liability. Data are the average of two individual assays for each receptor and are expressed as % inhibition of the control specific binding of the reference compound. Results showing an inhibition higher than 50% are considered to represent significant effects of the test compound.

[3] = biological target: Noradrenergic β2 (Homo sapiens, UniProt P07550); assay: CNS receptor binding assay, β2; conditions: MAP4343 10 µM; [^3H] (-) CGP 12178; Human recombinant (CHO cells); read-out: % Inhibition of control specific binding
Chain of Noradrenergic β2 (P07550 whole entry): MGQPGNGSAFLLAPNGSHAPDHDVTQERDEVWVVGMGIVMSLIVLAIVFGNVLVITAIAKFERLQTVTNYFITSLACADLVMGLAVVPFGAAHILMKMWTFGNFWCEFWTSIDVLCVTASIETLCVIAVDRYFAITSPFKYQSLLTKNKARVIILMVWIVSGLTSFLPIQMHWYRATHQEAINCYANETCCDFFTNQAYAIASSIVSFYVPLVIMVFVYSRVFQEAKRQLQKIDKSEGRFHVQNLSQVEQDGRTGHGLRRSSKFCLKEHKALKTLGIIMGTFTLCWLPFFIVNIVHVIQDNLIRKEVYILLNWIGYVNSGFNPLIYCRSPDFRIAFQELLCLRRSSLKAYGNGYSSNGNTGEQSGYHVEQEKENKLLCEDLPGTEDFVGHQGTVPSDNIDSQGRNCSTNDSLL
Description: as §1, §2

[4] = biological target: Histaminergic H2 (Homo sapiens, UniProt P25021); assay: CNS receptor binding assay, H2; conditions: MAP4343 10 µM; [^125I] APT; Human recombinant (CHO cells); read-out: % Inhibition of control specific binding
Chain of Histaminergic H2 (P25021 whole entry): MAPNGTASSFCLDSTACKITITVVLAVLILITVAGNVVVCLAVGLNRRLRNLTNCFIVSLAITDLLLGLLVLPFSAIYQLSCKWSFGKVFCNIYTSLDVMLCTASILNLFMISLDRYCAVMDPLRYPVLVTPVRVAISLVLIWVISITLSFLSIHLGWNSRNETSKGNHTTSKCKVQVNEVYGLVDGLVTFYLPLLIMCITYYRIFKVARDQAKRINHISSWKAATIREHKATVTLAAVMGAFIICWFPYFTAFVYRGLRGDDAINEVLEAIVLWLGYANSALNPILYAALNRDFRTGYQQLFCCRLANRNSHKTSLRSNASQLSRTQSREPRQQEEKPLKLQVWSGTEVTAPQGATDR
Description: as §1, §2

[5] = system: Wistar (WI) rats; assay: Forced swimming test (FST), WI rats; assay type: in vivo, rat; conditions: dose-ranging, Fig. 6A
Description: 3B-methoxy-PREG (also referred to as "MAP4343" in Example 4) was dissolved in sesame oil by sonication using a Sonifer-450 (Branson Ultrasonics Corporation, Danbury, USA) during 1 cycle of 5 pulses in sesame oil. Fluoxetine (Biotrend, Köln, Germany) and Ketamine (Sigma-Aldrich, St-Quentin Fallvier, France) were dissolved in sterile saline solution (NaCl 0.9%). The drug formulations were prepared freshly each day of treatment. MAP4343 was administered subcutaneously (ranging of 1-15 mg/Kg/day) while fluoxetine and ketamine were injected intraperitonealy (10 mg/Kg/day and 30 mg/Kg/day, respectively).
Rats were submitted to the forced swimming test (FST), according the procedure initially described by (Detke et al., 1995) and slightly modified by (Bianchi et al., 2002). Briefly, rats were individually placed into a Plexiglas cylinder (40 cm height, 20 cm diameter) containing 25 cm of water at 25 ± 1°C, under 50 lux illumination. After a pre-test session of 15 min, rats were removed, dried and returned to its housed cage. […] The pre-test and test sessions were recorded using a video camera placed above the cylinder for subsequent behavioral analysis. The immobility time (in sec) was blindly measured by two independent experimenters from recorded videos. […]
The effects of a dose-ranging administration of MAP4343 were tested in WI and WKY rats on their immobility time measured in FST.

[6] = biological target: Serotoninergic Transporter (Homo sapiens, UniProt P31645); assay: CNS receptor binding assay, serotoninergic transporter; conditions: MAP4343 10 µM; [^3H] imipramine; Human recombinant (CHO cells); read-out: % Inhibition of control specific binding
Chain of Serotoninergic Transporter (P31645 whole entry): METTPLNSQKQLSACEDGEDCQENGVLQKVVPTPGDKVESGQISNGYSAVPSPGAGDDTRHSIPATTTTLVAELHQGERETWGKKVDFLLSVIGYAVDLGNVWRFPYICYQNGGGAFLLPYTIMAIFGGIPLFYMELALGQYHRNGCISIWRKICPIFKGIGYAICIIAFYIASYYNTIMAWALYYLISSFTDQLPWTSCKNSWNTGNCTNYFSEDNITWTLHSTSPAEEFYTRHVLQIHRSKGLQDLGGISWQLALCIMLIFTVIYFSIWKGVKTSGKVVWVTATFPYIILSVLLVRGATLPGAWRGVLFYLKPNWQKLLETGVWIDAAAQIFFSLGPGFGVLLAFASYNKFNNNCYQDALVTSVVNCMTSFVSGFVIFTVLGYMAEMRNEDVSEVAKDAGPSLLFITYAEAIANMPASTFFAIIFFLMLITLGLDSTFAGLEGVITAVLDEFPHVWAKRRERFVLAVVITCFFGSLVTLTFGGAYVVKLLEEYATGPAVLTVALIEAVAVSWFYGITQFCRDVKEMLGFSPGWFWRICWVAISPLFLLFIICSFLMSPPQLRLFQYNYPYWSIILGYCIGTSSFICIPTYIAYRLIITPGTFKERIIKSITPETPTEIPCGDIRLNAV
Description: as §1, §2

[7] = biological target: T2, Muscarinic (Cholinergic) M5 (Homo sapiens, UniProt P08912); assay: CNS receptor binding assay, M5; conditions: MAP4343 10 µM; [^3H] 4-DAMP; Human recombinant (CHO cells); read-out: % Inhibition of control specific binding
T2 construct: expressed in transfected cells; host or cells: CHO cells
T2 sequence (P08912 whole entry): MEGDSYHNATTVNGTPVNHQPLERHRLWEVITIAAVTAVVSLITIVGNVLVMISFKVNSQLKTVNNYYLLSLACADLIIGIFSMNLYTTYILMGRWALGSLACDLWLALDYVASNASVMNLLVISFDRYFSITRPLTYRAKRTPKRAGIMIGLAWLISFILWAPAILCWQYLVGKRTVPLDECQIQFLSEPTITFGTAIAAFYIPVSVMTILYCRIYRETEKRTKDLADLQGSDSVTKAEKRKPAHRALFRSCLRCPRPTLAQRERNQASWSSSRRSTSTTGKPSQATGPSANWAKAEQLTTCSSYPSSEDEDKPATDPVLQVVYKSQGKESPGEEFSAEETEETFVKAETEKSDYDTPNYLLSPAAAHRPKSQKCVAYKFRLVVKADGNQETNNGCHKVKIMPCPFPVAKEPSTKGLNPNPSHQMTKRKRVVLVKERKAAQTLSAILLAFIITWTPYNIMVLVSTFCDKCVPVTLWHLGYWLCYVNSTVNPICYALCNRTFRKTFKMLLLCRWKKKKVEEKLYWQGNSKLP
Description: as §1, §2

[8] = biological target: T3, ERβ (Homo sapiens, UniProt Q92731); assay: Radioligand binding assay, steroid hormone receptor ERβ; conditions: MAP4343 10 µM; 0.5 nM [^3H] Estradiol; Human recombinant Sf9 cells; second ER row
T3 construct: host or cells: Sf9 cells
T3 sequence (Q92731 whole entry): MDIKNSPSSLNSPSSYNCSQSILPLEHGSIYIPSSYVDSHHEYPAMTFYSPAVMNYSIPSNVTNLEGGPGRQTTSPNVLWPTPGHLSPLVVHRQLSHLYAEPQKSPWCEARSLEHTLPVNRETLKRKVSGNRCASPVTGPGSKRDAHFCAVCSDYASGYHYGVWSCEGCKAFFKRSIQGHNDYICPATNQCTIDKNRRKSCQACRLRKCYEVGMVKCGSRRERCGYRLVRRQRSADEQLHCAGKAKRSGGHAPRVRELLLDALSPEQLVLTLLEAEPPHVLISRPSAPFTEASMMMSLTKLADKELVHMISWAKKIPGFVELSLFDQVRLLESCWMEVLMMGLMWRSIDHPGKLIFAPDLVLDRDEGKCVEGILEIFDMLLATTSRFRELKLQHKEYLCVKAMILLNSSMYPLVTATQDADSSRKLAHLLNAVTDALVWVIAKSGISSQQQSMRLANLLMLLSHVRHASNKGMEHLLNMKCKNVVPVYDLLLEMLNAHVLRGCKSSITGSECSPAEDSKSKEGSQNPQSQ
Description: Binding affinity of 3β-methoxy-PREG (MAP4343) for receptors of steroid hormones was evaluated using radioligand binding assays.
Table 3. Affinity of MAP4343 (10 µM) for steroid hormones receptors measured by radioligand binding assays. […] None of the results met significance criteria at concentrations used.

For `CO[C@H]1CC[C@@]2(C)C(=CC[C@H]3[C@@H]4CC[C@H](C(C)=O)[C@@]4(C)CC[C@@H]32)C1` (stereo in doubt) [MAP4343, 3β-methoxy-pregna-5-ene-20-one], which “progesterone receptor antagonist activity” value [1] is on record?
Its value is “weak progesterone receptor antagonist”.

What about the “% Inhibition of control specific binding” value [2] of the same molecule?
The value was -10%.

And the inhibition at 10 µM [3]?
Its inhibition at 10 µM is -4%.

And the inhibition at 10 µM [4]?
Its inhibition at 10 µM is -21%.

What about the “immobility time measured in FST, change as compared to WI receiving vehicle alone” value ([5]; MAP4343 10 mg/kg) of the same molecule?
Its value is -27%.

And the “immobility time measured in FST, change as compared to WI receiving vehicle alone” value ([5]; MAP4343 15 mg/kg)?
The value was -31%.

And the inhibition at 10 µM [6]?
Its inhibition at 10 µM is 3%.

What about the inhibition at 10 µM [7] of the same molecule?
Its inhibition at 10 µM is 12%.

And the “% inhibition” value [8]?
Its value is 16%.

And the inhibition at 10 µM [8]?
The inhibition at 10 µM was less than 25%.
